Data on 60 compounds can be found in PubChem BioAssay AID1884 (NMMLSC, 2009).

SMILES strings stand for the structures. The source made the active and inactive calls. The rule behind the calls is not given here.

In the first test the target is Regulator of G-protein signaling 19 (Homo sapiens) (UniProt P49795). As to the kind of experiment: modulators of RGS19-Galphao binding, dose response, biochemical, multiplexed bead flow cytometry (AID 1884). To be noted: bead-based flow cytometry RGS19-Galphao binding. Background: In flow cytometry, cells or beads pass a laser one at a time.
Chain of Regulator of G-protein signaling 19 (Homo sapiens) (P49795 whole entry, looked up): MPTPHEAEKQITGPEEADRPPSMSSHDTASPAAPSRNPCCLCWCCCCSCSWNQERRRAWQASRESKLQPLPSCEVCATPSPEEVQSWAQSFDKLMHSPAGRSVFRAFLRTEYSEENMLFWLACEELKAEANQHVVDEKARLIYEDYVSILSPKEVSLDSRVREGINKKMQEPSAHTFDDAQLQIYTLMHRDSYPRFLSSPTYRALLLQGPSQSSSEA
Regarding `COc1ccc(Br)cc1/C=N/Nc1cccc(C(=O)O)c1`, the EC50 – broadly, the concentration at which the effect is half-maximal – was > 30 µM (inactive).
Same read-out and setting: then `O=c1[nH]c(=S)n(Cc2ccco2)c(O)c1C=NCc1cccs1`, with > 30 µM (inactive); and `NS(=O)(=O)c1ccc(N/N=C/c2ccc(O)c(O)c2O)c([N+](=O)[O-])c1`, with 0.68 µM.
Still for that read-out and setting: for `CN(C)[C@@H]1C(=O)C(C(=O)NCN2CCCC2)=C(O)[C@@]2(O)C(=O)C3=C(O)c4c(O)cccc4[C@@](C)(O)C3CC12` (some centres not stated) the value was 7.53 µM.
Consider `CCOC(=O)C1=C(C)NC(C)=C(C(=O)OCCNC(=O)c2cccnc2)C1c1cccc([N+](=O)[O-])c1` (configuration not stated), for which the EC50 is > 30 µM (inactive).
As to `CC(C)Sc1nc2ccc(N3C(=O)C4CCCCC4C3=O)cc2s1` (configuration not stated), the EC50 is > 30 µM (inactive).
The same measure, in the same setting: then `CCOC(=O)N=Nc1c(O)n(C)c2ccccc12`, with > 30 µM (inactive); and `CCOC(=O)/C(C(=O)Nc1ccccc1Cl)=C1/NC(C)(C)Cc2ccccc21`, with > 30 µM (inactive); and `O=C1CCCC2=C1C(c1cccs1)n1ncnc1N2` (configuration not stated), with > 30 µM (inactive).

The test is the same for the next values; noted with them: bead-based flow cytometry RGS19-Galphao binding; measured here: Ki for RGS19-Galphao.
Turning to `COCCCNC(=O)c1ccc2c3c(onc13)-c1ccccc1C2=O`, the Ki – broadly, a measure of affinity in units of concentration, obtained from inhibition or displacement – stood at 3.63 µM.
The compound `CC(=O)N(O)CCCCCNC(=O)CCC(=O)N(O)CCCCCNC(=O)CCC(=O)N(O)CCCCCN` gave a Ki of 3.84 µM.
The same measure, in the same setting: for `Cc1cc(C)c2c(=O)n(CC(=O)Nc3ccc(Cl)cc3)sc2n1` the value was 1.45 µM; for `O=c1c2ccccc2sn1-c1cc(S(=O)(=O)N2CCOCC2)ccc1N1CCOCC1`, 0.11 µM.
Compound `CCN1/C(=C/C(C)=C/c2sc3ccccc3[n+]2CC)Sc2ccccc21` showed an inhibition constant (Ki) of 5.74 µM.
In the case of `Cc1ccccc1-n1sc2cc(F)ccc2c1=O`, the Ki came to 0.43 µM.
Same read-out and setting: for `CCC(=O)NC1=C(Cl)C(=O)C(NC(=O)CC)=C(Cl)C1=O` the value was 0.76 µM; for `CN(C)S(=O)(=O)c1cccc(-n2sc3ccccc3c2=O)c1`, 0.15 µM.
As to `NS(=O)(=O)c1ccc(N/N=C/c2ccc(O)c(O)c2O)c([N+](=O)[O-])c1`, the Ki came to 0.63 µM.
The compound `CCN=c1scc(C)n1/N=C/c1ccc(O)c(O)c1O` gave a Ki of 4.33 µM.
The same measure, in the same setting: then `CCOC(=O)C1CCCN(C(=O)Cn2sc3nc(C)cc(C)c3c2=O)C1` (configuration not stated), with 2.1 µM; and `CN(C)[C@@H]1C(=O)C(C(=O)NCN2CCCC2)=C(O)[C@@]2(O)C(=O)C3=C(O)c4c(O)cccc4[C@@](C)(O)C3CC12` (some centres not stated), with 7.07 µM; and `O=c1c2ccccc2sn1-c1ccccc1`, with 0.3 µM.
Still for that read-out and setting: for `CN=c1scc(C)n1/N=C/c1ccc(O)c(O)c1O` the value was 2.64 µM; for `COc1ccc(OC)c(CCNC(=O)Cn2sc3nc(C)cc(C)c3c2=O)c1`, 1.14 µM.
In turn, `CC(NC(=O)c1sc2cc([N+](=O)[O-])ccc2c1Cl)C(C)(C)C` (configuration not stated) yielded a Ki of 0.96 µM.
The same measure, in the same setting: for `Cc1cc(Cl)ccc1N=c1ssnc1Cl` the value was 4.13 µM; for `CCN(CC)S(=O)(=O)c1cccc(C(=O)N/N=C/c2ccc(O)c(O)c2O)c1`, 2.03 µM; for `CCOc1ccccc1-c1c2cc(O)c(=O)cc-2oc2cc(O)c(O)cc12`, 0.93 µM.
`O=c1c2ccccc2sn1-c1cc(S(=O)(=O)N2CCOCC2)ccc1N1CCCC1`: the Ki stood at 0.44 µM.
On the same count and under the same terms, for `CCN(CC)S(=O)(=O)c1cccc(-c2n[nH]c(=S)n2/N=C/c2ccc(C(=O)OC)cc2)c1` the value was 5.82 µM; for `CCOC(=O)c1sc(NC(=O)CSc2nnc(Cc3ccccc3)o2)c(C#N)c1C`, 1.33 µM.
Same read-out and setting: then `Cc1[nH]n(-c2ccccc2)c(=S)c1C=Nc1cccc([N+](=O)[O-])c1`, with 1.59 µM.
In the case of `O=C(O[C@@H]1OC2COC(=O)c3cc(O)c(O)c(O)c3-c3c(cc(O)c(O)c3O)C(=O)O[C@@H]([C@H]1O)[C@@H]2O)c1cc(O)c(O)c(O)c1`, the Ki is 2.98 µM.
`O=C(O)C[C@@H]1C(=O)O[C@@H]2C(COC(=O)c3cc(O)c(O)c(O)c3)O[C@@H](OC(=O)c3cc(O)c(O)c(O)c3)[C@@H](OC(=O)c3cc(O)c(O)c4c3[C@H]1[C@H](O)C(=O)O4)[C@H]2OC(=O)c1cc(O)c(O)c(O)c1` (some centres not stated): the inhibitory constant (Ki) came to 5.37 µM.
Still for that read-out and setting: for `CCc1c(C(=O)Nc2ccccc2)c(C)[nH]c(=S)c1C#N` the value was 10.5 µM.
Compound `COC(=O)CCC(=O)Nc1sc(C)c(C)c1C(N)=O` showed a Ki of 4.09 µM.
Still for that read-out and setting: then `CN1CCN(C2=C(Cl)C(=O)C(c3cnc(N4CCCCC4)s3)=C(Cl)C2=O)CC1`, with 0.01 µM; and `O=[N+]([O-])c1ccc(Sc2cccc[n+]2[O-])c2nonc12`, with 0.82 µM.
Same read-out and setting: then `CCCCn1c(-c2csc(C(C)C)c2)n[nH]c1=S`, with 10.7 µM; and `Cc1[nH]n(-c2ccccc2)c(=S)c1C=NCCCN=Cc1c(C)[nH]n(-c2ccccc2)c1=S`, with 2.63 µM.
As to `Cc1cc(C)c2c(=O)n(CC(=O)Nc3cccc(F)c3)sc2n1`, the inhibitory constant (Ki) was found to be 1.16 µM.
In turn, `CN(C)c1ncc(C2=C(Cl)C(=O)C(N3CCCC3)=C(Cl)C2=O)s1` had a Ki of 0.79 µM.
Same read-out and setting: for `CC1(C)OC(=O)C(=Cc2ccc(-c3ccc(S(N)(=O)=O)cc3)o2)C(=O)O1` the value was 2.87 µM.
With `O=C(OCC1O[C@@H](OC(=O)c2cc(O)c(O)c(O)c2)[C@@H](OC(=O)c2cc(O)c(O)c(O)c2)[C@@H](OC(=O)c2cc(O)c(O)c(O)c2)[C@@H]1OC(=O)c1cc(O)c(O)c(O)c1)c1cc(O)c(O)c(O)c1` (some centres not stated), the Ki is 4.12 µM.
The same measure, in the same setting: for `CCC(=O)NC(c1ccc(C)cc1)c1cc([N+](=O)[O-])c2cccnc2c1O` (configuration not stated) the value was 2.07 µM; for `Cc1ccc(-n2sc3ccccc3c2=O)cc1S(=O)(=O)N1CCCCC1`, 0.57 µM; for `Cc1cccc(N2CCN(C(=O)Cn3sc4nc(C)cc(C)c4c3=O)CC2C)c1` (configuration not stated), 1.27 µM.
Still for that read-out and setting: then `COc1ccccc1-n1c(-c2cc(-c3ccco3)[nH]n2)n[nH]c1=S`, with 13.2 µM; and `O=C(Cc1csc(N2CCOCC2)n1)N/N=C/c1ccc(O)c(O)c1O`, with 4.6 µM.
Same read-out and setting: then `CCCNC(=O)Cn1sc2nc(C)cc(C)c2c1=O`, with 0.93 µM.
Regarding `O=C1C(Cl)=C(N2CCCCC2)C(=O)C(Cl)=C1c1cnc(N2CCCCC2)s1`, the Ki was found to be 0.63 µM.
Regarding `CC(=O)N1CC[n+]2c(-c3ccc([N+](=O)[O-])cc3)csc21`, the Ki stood at 7.17 µM.
`COC(=O)c1c(-c2ccc(C(C)(C)C)cc2)csc1NC(=O)C1C2CCC(O2)C1C(=O)O` (configuration not stated): the Ki turned out to be 7.55 µM.
Same read-out and setting: then `Cc1ccc(NC(=O)Cn2sc3nc(C)cc(C)c3c2=O)c(Cl)c1`, with 0.47 µM.
With `NS(=O)(=O)c1ccc(CNC(=O)/C=C/c2ccco2)cc1`, the Ki is 10.7 µM.
Same read-out and setting: for `O=C1CCC(=O)N(O)CCCCCNC(=O)CCC(=O)N(O)CCCCCNC(=O)CCC(=O)N(O)CCCCCN1` the value was 1.93 µM; for `O=C(COc1ccccc1C(=O)N/N=C\c1ccc(O)c(O)c1)N/N=C/c1ccc(O)c(O)c1`, 3.98 µM.
Take `C/C(=N/NC(=O)c1cc(O)c(O)c(O)c1)c1ccc([N+](=O)[O-])cc1`: the Ki was determined as 18.7 µM.
`COc1ccc(C2=CC(=O)C=CC2=O)cc1` showed a Ki of 1.84 µM.
`O=c1c2ccccc2sn1-c1ccc(S(=O)(=O)N2CCCC2)cc1` registered a Ki of 0.95 µM.
In the case of `CC(=O)OCCCNc1cc(Sc2nc3ccccc3s2)c2nonc2c1[N+](=O)[O-]`, the Ki was 0.92 µM.
The same measure, in the same setting: for `O=C(NCCCN1CCOCC1)c1sc2cc([N+](=O)[O-])ccc2c1Cl` the value was 2.05 µM.
